pIC50: −log10 of the molar value.
Columns and labels:
c-kit2 quadruplex-DNA [1] = test: Fluorescence titration with c-kit2; format: binding; conditions: 0.25 μM compound, cacodylate buffer + 100 mM KCl, λex=340 nm
Procedure: (§1) The intra-quadruplex selectivity is evaluated through fluorescence titrations by comparison of experiments carried out with 22AG (see above) and with two other quadruplex-structures: c-myc and c-kit2. The formation of these two quadruplex-DNAs is currently highly suspected in the promoter region of c-myc (see above) and c-kit (22; 29 and 30)oncogenes. The sequences are the following: c-myc: [5′-[…]-3′] and c-kit2: [(5′-[…]-3′]; Quadruplex-structures are prepared by heating the corresponding oligonucleotide at 90° C. for 5 min in a 10 mM sodium cacodylate buffer pH 7.2, 100 mM KCl and cooling in ice to favor the intramolecular folding by kinetic trapping. Concentrations are determined by UV-Vis measurements (after thermal denaturation, 5 min at 85° C.) at 260 nm before use.

[2] = tested on: HT1080GFP-POT1 human fibrosarcoma and U20S human osteosarcoma cells; test: Inhibition of cell proliferation, viable cell count with trypan blue; format: cell-based; conditions: 72 hours, read-out: IC50 proliferation of cancer cells
Procedure: The HT1080 human fibrosarcoma cell line stably transfected with pEGFP-POT1 vector (HT1080GFP-POT1) has been previously described (32) and U20S human osteosarcoma was from American Type Culture Collection (Rockville, USA). Cells were grown in Dublecco's modified Eagles's medium (Invitrogen) supplemented with 10% v/v fetal bovine serum and with 400 μg/ml geneticin for HT1080GFP-POT1. Cells were plated in 6-wells culture plates on day 0 at 4.5×10^4 cells/well in the presence of different concentrations of compound 3 (10, 3, 1, 0.3 and 0.1 μM), each concentration in duplicate, and cultured for further 72 hours. At day 3, cells were washed with 1×PBS and trypsinized. For each treated cell sample, the number of viable cells was determined in the presence of trypan blue. Results are given on FIG. 15A and FIG. 15B. They correspond to the relative cell number in percent as compared to control untreated cells defined as 100%.

[3] = tested on: FPf1T (plasmodium telomeric quadruplex-DNA); test: FRET-melting assay with FPf1T; format: binding, Plasmodium falciparum; conditions: 0.2 μM FPf1T, 1 μM compound
Procedure: Stabilization, and so interaction, of compounds with quadruplex-structure is monitored via FRET-melting assay, in a version that also enables the determination of the quadruplex-over duplex-DNA selectivity as well as the intra-quadruplex selectivity (17).
FRET assay is performed with oligonucleotides that mimic the human or plasmodium telomeric sequences, and equipped with FRET partners at each extremities: F21T (FAM-G3[T2AG3]3-Tamra,) FPf1T (FAM-G3[T3AG3]3-Tamra) and FPf8T (FAM-G3[T2CAG3]3-Tamra) with FAM: 6-carboxyfluorescein and Tamra: 6-carboxy-tetramethylrhodamine). Measurements were made with excitation at 492 nm and detection at 516 nm.
Fluorescence melting were carried out. The results are given on FIG. 3A-FIG. 3C. The experiments were carried out with 0.2 μM of F21T, FPf1T or FPf8T in a buffer containing 10 mM lithium cacodylate pH 7.2 and 100 mM NaCl or KCl (see example of F21T below, NaCl (left) and KCl (right)); the melting of the quadruplex-DNA was monitored alone and in the presence of 1 μM (5 equiv.) of compound 3.

hPOT1 = test: Electrophoretic mobility shift assay, POT1/22AG binding; design: species or system human; conditions: 30 nM hPOT1, 20 nM 32P-22AG, 30 min room temperature
Procedure: An electrophoretic mobility shift assay using hPOT1 was performed on the telomeric 22AG oligonucleotide (see above). 22AG was labeled at the 5′ end with [γ-^32P]-ATP using T4 polynucletide kinase. Purified recombinant hPOT1 was produced in a baculovirus expression system. The POT1/22AG binding assay was performed in a total volume of 10 μl containing 50 mM HEPES, pH 7.9, 100 mM NaCl, 0.1 mM EDTA, 4% w/v sucrose, 2% v/v glycerol, 0.1 mg/ml BSA, 0.02% w/v bromophenol blue, 30 nM hPOT1, 20 nM [[…]-^32P]-22AG. Different concentrations of compound 3 (10, 1, 0.1 and 0.01 μM) were added with hPOT1 to the solution and the mixture was incubated at room temperature for 30 min. Each individual sample was separated by electroporesis on 1% agarose gel in 0.5×Tris-Borate-EDTA buffer. The gel was run at 80V for 35 min, dried on whatman DE81 paper and radiaoactivity visualized by a phosphorimager (Typhoon 9210, Amersham). Analysis of the data was carried out by ImageQuant software (Amersham) and results were expressed as a percentage of the POT1-22AG complex obtained in the untreated control (defined as 100%) (see FIG. 14).

c-myc quadruplex-DNA = test: Fluorescence titration with c-myc; format: binding; conditions: 0.25 μM compound, cacodylate buffer + 100 mM KCl, λex=340 nm
Procedure: as §1

c-kit2 quadruplex-DNA [4] = test: Circular dichroism with c-kit2; format: binding; conditions: 3 μM c-kit2, 30 μM compound, 100 mM KCl, 285 nm
Procedure: Circular dichroism (CD) enables a deep study of the modification of the DNA structure upon the binding of a ligand; it thus reflects the affinity of the ligand to its target, and can also provide insight into its binding mode (Paramasivan et al, Methods, 2007, 43, 324).
The intra-quadruplex selectivity is evaluated through CD by comparison of experiments carried out with 22AG (see above) and with two other quadruplex-structures: c-myc and c-kit2 (see above). The results are given on FIG. 11A and FIG. 11B. To a 3 μM solution of both c-kit2 (left) and c-myc (right) in cacodylate buffer (10 mM sodium cacodylate+100 mM KCl) is added an excess of compound 3 (30 μM, 10 equiv.).

c1cc(-c2cnc(-c3cccc(-c4cnco4)n3)o2)nc(-c2cnc(-c3cccc(-c4cnco4)n3)o2)c1 [compound 3, 2,6-bis{2-[6-(oxazol-5-yl)pyridin-2-yl]oxazol-5-yl}pyridine]
fluorescence of compound upon addition of c-kit2 (c-kit2 quadruplex-DNA [1]): progressive quench of the fluorescence | pIC50 [2]: 6.00 to 7.00 | ΔT1/2 FPf1T ([3]; K+ (100 mM KCl)): 2.1 °C | ΔT1/2 FPf1T ([3]; Na+ (100 mM NaCl)): 20.4 °C | pIC50 (hPOT1): 6.52 | fluorescence of compound upon addition of c-myc (c-myc quadruplex-DNA): progressive quench of the fluorescence | CD signal of c-kit2 (c-kit2 quadruplex-DNA [4]): modification of the amplitude of the CD signal

— US20110201648A1, “POLY-HETEROARYL DERIVATIVES FOR THE TREATMENT OF CANCER” (INSTITUT CURIE, priority 2008, published 2011)
